Data from article PMC8763936 (Investigational New Drugs, 2021).
Where two headings read alike, the source gives them in different places.

Tests used:
[1] = Study 2: midazolam pharmacokinetics alone or with single and multiple dose entrectinib
Description: Following completion of this part of the study, subjects could continue in an expanded access portion of the study which is not discussed here.

CYP2D6 = CYP2D6 (Homo sapiens, UniProt P10635); experiment: Effect of CYP-selective inhibitors on metabolism of entrectinib by pooled human liver microsomes; conditions: inhibitor 1 µM, 1 µM entrectinib
Sequence of CYP2D6 (P10635 whole entry): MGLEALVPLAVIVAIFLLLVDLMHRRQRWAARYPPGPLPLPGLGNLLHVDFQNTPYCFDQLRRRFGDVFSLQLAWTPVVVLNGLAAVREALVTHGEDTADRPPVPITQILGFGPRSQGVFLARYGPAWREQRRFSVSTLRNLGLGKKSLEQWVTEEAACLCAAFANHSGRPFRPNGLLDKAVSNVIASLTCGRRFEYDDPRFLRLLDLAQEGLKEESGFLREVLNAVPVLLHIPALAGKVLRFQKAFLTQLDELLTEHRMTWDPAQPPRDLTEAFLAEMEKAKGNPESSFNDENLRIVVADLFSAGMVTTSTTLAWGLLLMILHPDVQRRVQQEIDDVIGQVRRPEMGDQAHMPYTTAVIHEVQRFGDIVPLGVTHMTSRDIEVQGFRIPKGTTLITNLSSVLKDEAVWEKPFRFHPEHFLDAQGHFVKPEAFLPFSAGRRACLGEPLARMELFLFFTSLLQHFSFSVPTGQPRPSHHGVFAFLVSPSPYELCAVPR

clinical = conditions: human, oral
CYP3A4/5 = experiment: Effect of CYP-selective inhibitors on metabolism of entrectinib by pooled human liver microsomes; type: in vitro ADME
[2] = Effect of Multiple Dose Entrectinib
[3] = Effect of Single Dose Entrectinib
[4] = Midazolam alone, geometric mean (geometric CV)
[5] = Midazolam with multiple dose entrectinib 600 mg/day, geometric mean (geometric CV)
[6] = Midazolam with multiple dose entrectinib, geometric mean (geometric CV)
[7] = Midazolam with multiple dose entrectinib, median (minimum, maximum)
[8] = Midazolam with single dose entrectinib 600 mg, geometric mean (geometric CV)
[9] = Midazolam with single dose entrectinib, geometric mean (geometric CV)
[10] = Digoxin alone, geometric mean (geometric CV)
[11] = digoxin with entrectinib vs alone
[12] = single dose entrectinib 600 mg vs digoxin alone

**Q.** Which results are given for `OCc1ncc2n1-c1ccc(Cl)cc1C(c1ccccc1F)=NC2` [1’-hydroxymidazolam]?
**A.** Ratio of adjusted geometric means (90% Confidence Intervals), AUCinf [1, 2]: 0.89 (0.70, 1.12); Ratio of adjusted geometric means (90% Confidence Intervals), Cmax [1, 2]: 0.49 (0.36, 0.67); Ratio of adjusted geometric means (90% Confidence Intervals), AUCinf [1, 3]: 0.96 (0.83, 1.10); Ratio of adjusted geometric means (90% Confidence Intervals), Cmax [1, 3]: 0.62 (0.50, 0.76); Cmax [1, 4]: 6.57 nM; t1/2 [1, 4]: 3.71 (81%) h; Tmax ([1]; Midazolam alone, median (minimum, maximum)): 0.5 (0.25, 1.00) h; AUCinf ([1]; Midazolam alone, single 7.5 mg midazolam dose (title), subjects with advanced solid tumors, geometric mean (geometric CV)): 14.9 (60%) nM•h; AUCinf [1, 5]: 14.0 (42%) nM•h; Cmax [1, 5]: 3.51 nM; t1/2 [1, 6]: 5.37 (75%) h; Tmax [1, 7]: 0.75 (0.5, 5.97) h; AUCinf [1, 8]: 14.4 (52%) nM•h; Cmax [1, 8]: 4.21 nM; t1/2 [1, 9]: 4.56 (49%) h; Tmax ([1]; Midazolam with single dose entrectinib, median (minimum, maximum)): 1.0 (0.48, 23.6) h; metabolic ratio of metabolite to parent for AUCinf and Cmax, point estimates ([1]; coadministration with multiple-dose entrectinib vs midazolam alone): 59% to 64%; decrease of 1’-hydroxymidazolam metabolite-to-parent ratio ([1]; multiple oral doses of entrectinib at steady-state): 41%

**Q.** With `C=C[C@H]1C[N@@]2CC[C@H]1C[C@@H]2[C@@H](O)c1ccnc2ccc(OC)cc12` [Quinidine] as the compound, how does the “Effect on Formation of other Entrectinib Metabolites” value (CYP2D6) read?
**A.** The value was “+ (> 20% inhibition of 1 metabolite)”.

**Q.** Which Cmax [10] does the source give for `C[C@H]1O[C@@H](O[C@H]2[C@@H](O)C[C@H](O[C@H]3[C@@H](O)C[C@H](O[C@H]4CC[C@@]5(C)[C@H](CC[C@@H]6[C@@H]5C[C@@H](O)[C@]5(C)[C@@H](C7=CC(=O)OC7)CC[C@]65O)C4)O[C@@H]3C)O[C@@H]2C)C[C@H](O)[C@@H]1O` [Digoxin] here?
**A.** Its Cmax is 1.97 nM.

**Q.** And the “fe, percent of dose excreted unchanged in urine” value [10]?
**A.** Its value is 40.2 (13%).

**Q.** What about the t1/2 [10] of the same compound?
**A.** The t1/2 was 35.9 (15%) h.

**Q.** What about the “fe, percent of dose excreted unchanged in urine” value (Digoxin alone, geometric mean (geometric CV), listed as digoxin) of the same compound?
**A.** Its value is 40%.

**Q.** What about the Tmax (Digoxin alone, median (minimum, maximum)) of the same compound?
**A.** The Tmax was 1.0 (0.5, 1.0) h.

**Q.** What about the CLR (Digoxin alone, renal clearance, geometric mean (geometric CV)) of the same compound?
**A.** Its CLR is 130 (16%) mL/min.

**Q.** And the “fe, percent of dose excreted unchanged in urine” value (Digoxin with single 600 mg entrectinib, geometric mean (geometric CV))?
**A.** Its value is 44.0 (14%).

**Q.** And the “fe, percent of dose excreted unchanged in urine” value (Digoxin with single 600 mg entrectinib, geometric mean (geometric CV), listed as digoxin)?
**A.** Its value is 44%.

**Q.** What about the “Ratio of adjusted geometric means (90% Confidence Intervals), AUCinf” value [11] of the same compound?
**A.** The value was 1.18 (1.06, 1.32).

**Q.** What about the “Ratio of adjusted geometric means (90% Confidence Intervals), CLR” value [11] of the same compound?
**A.** Its value is 0.95 (0.91, 0.98).

**Q.** And the “Ratio of adjusted geometric means (90% Confidence Intervals), Cmax” value [11]?
**A.** The value was 1.28 (0.98, 1.67).

**Q.** What about the “geometric mean ratio of CLR with and without entrectinib” value (exploratory analysis, 90% CI: 90.9%, 98.4%) of the same compound?
**A.** Its value is 94.6%.

**Q.** What about the Tmax later (single 600 mg dose of entrectinib coadministered with digoxin) of the same compound?
**A.** The Tmax later was “approximately 1 h”.

**Q.** What about the “increase of AUCinf” value [12] of the same compound?
**A.** The value was 18%.

**Q.** And the “increase of Cmax” value [12]?
**A.** Its value is 28%.

**Q.** And the “increase in digoxin exposure” value (single oral dose of entrectinib coadministered)?
**A.** The value was 20–30%.

**Q.** What about the AUC(0-inf) (clinical; plasma, 75 mg) of the same compound?
**A.** The AUC(0-inf) was 0.0342 µM·h.

**Q.** And the AUC(0-inf) (clinical; plasma, 600 mg)?
**A.** The AUC(0-inf) was 0.0404 µM·h.

**Q.** What about the Cmax (clinical; plasma, 600 mg) of the same compound?
**A.** Its Cmax is 2.52 nM.

**Q.** And the Tmax (clinical; plasma, 600 mg)?
**A.** Its Tmax is 2 h.

**Q.** And the half-life (clinical; plasma, 600 mg)?
**A.** The half-life was 2300 min.

**Q.** What about the CL renal (clinical; urine, 600 mg) of the same compound?
**A.** The CL renal was 123 mL/min.

**Q.** What does the source list for `Cc1ncc2n1-c1ccc(Cl)cc1C(c1ccccc1F)=NC2` [Midazolam]?
**A.** t1/2 [1, 6]: 6.4 (68%) h; Tmax [1, 7]: 0.50 (0, 1.05) h; t1/2 [1, 9]: 5.33 (44%) h; half-life ([1]; human, plasma, oral): 488 min; Cmax ([1]; human, plasma, oral, 7.5 mg): 19 nM; Tmax ([1]; human, plasma, oral, 7.5 mg): 29.4 min; half-life ([1]; human, plasma, oral, 7.5 mg): 312 min; AUC(0-inf) ([1]; human, plasma, oral, 600 mg): 0.0437 µM·h; Cmax ([1]; human, plasma, oral, 600 mg): 12.9 nM; mean t1/2 ([1]; midazolam with a single dose of entrectinib): 5.73 h

**Q.** With `CC(=O)N1CCN(c2ccc(OCC3COC(Cn4ccnc4)(c4ccc(Cl)cc4Cl)O3)cc2)CC1` (stereo not drawn) [Ketoconazole] as the compound, how does the “inhibition of entrectinib metabolism depending on the metabolite formed” value (CYP3A4/5; human liver microsomes) read?
**A.** The value was 50–80%.

**Q.** What about the inhibition at 1 µM (CYP3A4/5; human, pooled human liver microsomes, probe entrectinib (metabolism to M5)) of the same compound?
**A.** Its inhibition at 1 µM is 82 ± 3%.

**Q.** What about the “Effect on Formation of other Entrectinib Metabolites” value (CYP3A4/5; inhibitor 1 µM, 1 µM entrectinib, pooled human liver microsomes) of the same compound?
**A.** The value was “+ + + (> 50% inhibition of multiple metabolites)”.
